# Earlier results, collected in patent US20070077220A1, “Stable ascorbic acid compositions” (priority 2005, published 2007).
compound,measurement,value
O=C1O[C@H]([C@@H](O)CO)C(O)=C1O [L-ascorbic acid],pK (acid-ionizable hydrogen in water),4.2
